In PMC10054634, “Chemical Constituents of Thesium chinense Turcz and Their In Vitro Antioxidant, Anti-Inflammatory and Cytotoxic Activities” (Molecules, 2023):
Entries after “also recorded” stand apart in the source; their conditions may differ. Read-outs that look alike come from different tables or passages of the source.

Assays:
[1] = DPPH radical scavenging assay; settings: for SC50: concentration required for 50% reduction of DPPH radicals, 37 °C, 30 min, 517 nm, nc = SC50 cannot be calculated due to weak or no related activities; for antioxidant activity on DPPH radical scavenging (in words): compared with positive control ascorbic acid
Procedure: The 2, 2-diphenyl-1-picrylhydrazyl (Aldrich Chem. Co. Ltd, Shanghai, China) radical scavenging activity assay was performed according to the previously published method with some modification. Test samples were dissolved in MeOH to six different concentrations ranging from 3.125 to 100 μM. Then, 100 μL of 100 μM DPPH in MeOH were mixed with 100 μL of samples at different concentrations in the wells of 96-well plates. The reaction mixtures were incubated in the dark at 37 °C for 30 min and then measured at 517 nm. Ascorbic acid was used as the positive control. The scavenging activity (SC) was estimated as follows: % SC = [1 − (Asample − Ablank)/Acontrol] ×100. Asample was the equivalent mixture of test sample and DPPH solution. Ablank was the equivalent mixture of test sample and MeOH solution. Acontrol was the equivalent mixture of DPPH and MeOH solution. The SC50 values were used to evaluate the antioxidant activities of isolated compounds. The experiments were performed in triplicate, and the data were expressed as the means ± SD of three independent experiments.

[2] = test system: NO production in LPS-activated RAW 264.7 cells; test: Inhibition of NO production in LPS-activated RAW 264.7 cells (Griess reaction); assay type: cell-based; settings: Mus musculus, read-out: IC50 (NO inhibitory activity)
Procedure: The macrophage RAW 264.7 cells were obtained from the Cell Bank of the Chinese Academy of Sciences (Shanghai, China). A total of 180 μL of RAW 264.7 cells (1 × 10^4) were plated respectively in each well of 96-well plate and cultured for 24 h, then the supernatant of the culture was discarded and 180 μL complete medium with 1 μg/mL LPS and different concentrations of test samples were added into triplicate wells for 24 h. The inhibition effects on LPS-stimulated NO production was evaluated by the Griess reaction assay. The experiments were performed in triplicate, and the data were expressed as the means ± SD of three independent experiments.

[3] = test system: A549; test: Cytotoxic assay (CCK-8), A549; assay type: cell-based, human; settings: A549, 48 h, mean ± SD (n = 3)
Procedure: (§1) Four human cancer cell lines, A549, NCI-H292, SiHa and MKN45, were purchased from the Cell Bank of the Chinese Academy of Sciences (Shanghai, China). […] Cisplatin (Abmole Bioscience, Shanghai, China) was used as positive control.
(§2) A total of 180 μL of cancer cells (5 × 10^3) were plated in each well of 96-well plates and cultured for 24 h, then the supernatant of the culture was discarded and 180 μL complete medium with different concentrations of test samples were added into triplicate wells of each cell line, respectively. Thereafter, A549, NCI-H292, SiHa and MKN45 were incubated for 48 h, respectively. The cell viability was evaluated by Cell Counting Kit-8 (CCK-8, Best Bio., Beijing, China), respectively. The experiments were performed in triplicate, and the data were expressed as the means ± SD of three independent experiments.

[4] = test system: NCI-H292; test: Cytotoxic assay (CCK-8), NCI-H292; assay type: cell-based, human; settings: NCI-H292, 48 h, mean ± SD (n = 3)
Procedure: as §1, §2

[5] = test system: SiHa; test: Cytotoxic assay (CCK-8), SiHa; assay type: cell-based, human; settings: 48 h, mean ± SD (n = 3)
Procedure: as §1, §2

[6] = test system: MKN45; test: Cytotoxic assay (CCK-8), MKN45; assay type: cell-based, human; settings: mean ± SD (n = 3)
Procedure: as §1, §2

[7] = Cytotoxicity in RAW 264.7 cells (CCK-8); settings: mouse
Procedure: The cell viability was determined by the CCK-8 assay method. The cytotoxicity was calculated from the plotted results using untreated cells at 100%.

[8] = RAW264.7, RAW 264.7, 1 μg/mL LPS, 24 h, mean ± SD (n = 3)
[9] = Homo sapiens, MKN-45, MKN45, 48 h

Molecule	SC50 [1] [µM]	SC50 ([1]; listed as ascorbic acid) [µM]	IC50 [2, 8] [µM]	IC50 ([3]; Homo sapiens) [µM]	IC50 ([4]; Homo sapiens) [µM]	IC50 ([5]; Homo sapiens) [µM]	IC50 [6, 9] [µM]	IC50 [7] [µM]	IC50 [3] [µM]	IC50 [4] [µM]	IC50 ([6]; MKN45, 48 h) [µM]	antioxidant activity on DPPH radical scavenging (in words) [1]	IC50 ([2]; RAW264.7, 24 h) [µM]	IC50 [5] [µM]
O=C1O[C@H]([C@@H](O)CO)C(O)=C1O [Ascorbic acid, reference compound]	15.6 ± 0.8	15.5 ± 0.8	–	–	–	–	–	–	–	–	–	–	–	–
OCCc1ccc(O)c(O[C@@H]2O[C@H](CO)[C@@H](O)[C@H](O)[C@H]2O[C@@H]2O[C@H](CO)[C@@H](O)[C@H](O)[C@H]2O)c1 [Compound 2, 3,4-dihydroxyphenethyl alcohol 3-O-β-D-glucopyranosyl (1→2)-β-D-glucopyranoside]	–	–	> 200	> 200	> 200	> 200	> 200	> 200	–	–	–	–	–	–
CC/C=C\CCO[C@@H]1O[C@H](CO)[C@@H](O)[C@H](O)[C@H]1O[C@@H]1O[C@H](CO)[C@@H](O)[C@H](O)[C@H]1O [Compound 3, (Z)-hex-3-ene 3-O-β-D-glucopyranosyl (1→2)-β-D-glucopyranoside]	–	–	> 200	> 200	> 200	> 200	> 200	> 200	–	–	–	–	–	–
C[C@]12CC[C@H](O)C[C@@]1(O)CCC1C2CC[C@]2(C)[C@@H](C3=CC(=O)OC3)CC[C@]12O (stereo partly drawn) [Compound 4, perlplogemn]	–	–	–	–	–	–	–	–	17.4 ± 2.4	22.2 ± 1.1	9.5 ± 0.7	–	–	–
CO[C@H]1C[C@H](OC2CC[C@]3(C)C4CC[C@]5(C)[C@@H](C6=CC(=O)OC6)CC[C@]5(O)C4CC[C@]3(O)C2)O[C@H](C)[C@H]1O[C@@H]1O[C@H](CO)[C@@H](O)[C@H](O)[C@H]1O (stereo partly drawn) [Compound 5, periplocin]	–	–	> 200	< 0.1	< 0.1	< 0.1	< 0.1	> 200	–	–	–	–	–	–
OCCc1cc(O)cc(O[C@@H]2O[C@H](CO)[C@@H](O)[C@H](O)[C@H]2O)c1 [Compound 7, 3,5-dihydroxyphenethyl alcohol 3-O-β-D-glucopyranoside]	255.2 ± 12.6	–	> 200	> 200	> 200	> 200	> 200	> 200	–	–	–	weak antioxidant activities; also recorded: weak activity	–	–
OCC1OC(OC2C(OCCc3ccccc3)OC(CO)C(O)C2O)C(O)C(O)C1O (stereo not drawn) [Compound 8, phenethyl alcohol β-sophoroside]	–	–	> 200	> 200	> 200	> 200	> 200	> 200	–	–	–	–	–	–
COc1cc(C(O)C(CO)Oc2c(OC)cc(C3OCC4C(c5ccc(OC6OC(CO)C(O)C(O)C6O)c(OC)c5)OCC34)cc2OC)ccc1O (stereo not drawn) [Compound 9, samsesquinoside]	47.3 ± 2.3	–	> 200	> 200	> 200	> 200	> 200	> 200	–	–	–	–	–	–
COc1cc(C2OCC3C(c4ccc(OC5OC(CO)C(O)C(O)C5O)c(OC)c4)OCC23)ccc1O [Compound 10, pinoresinol-4-O-D-glucoside]	30.5 ± 6.5	–	> 200	> 200	> 200	> 200	> 200	> 200	–	–	–	–	–	–
COc1cc(C2OCC3C(c4cc(OC)c(OC5OC(CO)C(O)C(O)C5O)c(OC)c4)OCC23)cc(OC)c1O [Compound 11, syringaresinol-4′-O-β-D-glucopyranoside]	16.2 ± 1.6	–	> 200	> 200	> 200	> 200	> 200	> 200	–	–	–	–	–	–
COc1cc(C2Oc3c(OC)cc(CCCO)cc3C2CO)ccc1OC1OC(CO)C(O)C(O)C1O [Compound 12, dihydrodehydro diconiferyl alcohol 4-O-β-D-glucoside]	–	–	> 200	> 200	> 200	> 200	> 200	> 200	–	–	–	–	–	–
COC/C=C/c1cc(OC)c2c(c1)[C@H](CO)[C@H](c1ccc(O[C@@H]3O[C@H](CO)[C@@H](O)[C@H](O)[C@H]3O)c(OC)c1)O2 [Compound 13, (7S, 8R) 9′-methoxy-dehydrodiconiferyl alcohol 4-O-β-D-glucopyranoside]	–	–	> 200	> 200	> 200	> 200	> 200	> 200	–	–	–	–	–	–
COc1cc([C@@H](O)[C@@H](CO)Oc2c(OC)cc(/C=C/CO)cc2OC)cc(OC)c1O[C@@H]1O[C@H](CO)[C@@H](O)[C@H](O)[C@H]1O [Compound 14, picraquassioside C]	–	–	> 200	> 200	> 200	> 200	> 200	> 200	–	–	–	–	–	–
COc1cc([C@H](O)[C@@H](CO)Oc2ccc(/C=C/CO)cc2OC)ccc1O[C@@H]1O[C@H](CO)[C@@H](O)[C@H](O)[C@H]1O [Compound 15, citrusin A]	–	–	> 200	> 200	> 200	> 200	> 200	> 200	–	–	–	–	–	–
COc1cc([C@H](O)[C@@H](CO)Oc2c(OC)cc(/C=C/CO)cc2OC)ccc1O[C@@H]1O[C@H](CO)[C@@H](O)[C@H](O)[C@H]1O [Compound 16, citrusin B]	–	–	> 200	> 200	> 200	> 200	> 200	> 200	–	–	–	–	–	–
COc1cc(C(O)C(CO)Oc2c(OC)cc(C(O)C(O)CO)cc2OC)ccc1O (stereo not drawn) [Compound 17, (erythro, erythro)-1-[4-[2-hydroxy-2-(4-hydroxy-3-methoxy-phenyl)-1-(hydroxymethyl)ethoxy]-3,5-dimethoxyphenyl]-1,2,3-propanetriol]	–	–	> 200	> 200	> 200	> 200	> 200	> 200	–	–	–	moderate activity	–	–
O=C(O)/C=C/c1ccc(O)cc1 [Compound 22, p-coumaric acid]	–	–	> 200	> 200	> 200	> 200	> 200	> 200	–	–	–	–	–	–
COc1cc(/C=C/CO)cc(OC)c1O[C@@H]1O[C@H](CO)[C@@H](O)[C@H](O)[C@H]1O [Compound 24, syringin]	–	–	–	> 200	> 200	> 200	> 200	> 200	–	–	–	–	> 200	–
COc1cc(/C=C/CO)ccc1O[C@@H]1O[C@H](CO)[C@@H](O)[C@H](O)[C@H]1O [Compound 25, coniferin]	–	–	> 200	> 200	> 200	> 200	> 200	> 200	–	–	–	–	–	–
COc1cc(/C=C/C=O)cc(OC)c1O[C@@H]1O[C@H](CO)[C@@H](O)[C@H](O)[C@H]1O [Compound 29, sinapaldehyde glucoside]	–	–	–	> 200	> 200	> 200	> 200	> 200	–	–	–	–	> 200	–
O=c1c(O)c(-c2ccc(O)c(O)c2)oc2cc(O)cc(O)c12 [Quercetin, reference compound]	–	–	11.1 ± 1.4	–	–	–	–	> 50	–	–	–	–	–	–
N.N.[Cl][Pt][Cl] [cisplatin, reference compound]	–	–	–	–	–	–	–	–	19.5 ± 6.7	52.8 ± 5.3	7 ± 0.3	–	–	7 ± 0.7
scopoletin [Compound 28]	–	–	–	–	–	–	–	–	> 200	> 200	52.8 ± 5.3	–	–	> 200
